# In patent US20230295087A1, “AGONISTS OF ROR GAMMAt” (BRISTOL-MYERS SQUIBB COMPANY, priority 2019, published 2023):
# Target: T1, human RORgT (Homo sapiens, UniProt P51449)
# T1 construct: expressed in transfected cells
# T1 sequence (P51449 267-516): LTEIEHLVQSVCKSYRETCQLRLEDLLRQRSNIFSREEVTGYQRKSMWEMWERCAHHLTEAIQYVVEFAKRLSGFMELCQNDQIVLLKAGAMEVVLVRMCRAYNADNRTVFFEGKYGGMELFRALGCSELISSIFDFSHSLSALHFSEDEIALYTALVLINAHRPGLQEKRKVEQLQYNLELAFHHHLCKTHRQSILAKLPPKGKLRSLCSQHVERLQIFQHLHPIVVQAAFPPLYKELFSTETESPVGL
# Assay: RORgT Gal4 Luciferase Reporter Gene Assay
# Assay type: cell-based
# Settings: engineered Jurkat cells overexpressing RORgT (LBD or full length) fused with Gal4 Luc reporter; 18 hours at 37° C.; luminescence
# Procedure, shortened: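 Jurkat cells expressing Gal4 Luc with either RORgT LBD (aa267-516) or full-length human RORgT, 10,000 cells/well, treated with compound (40 µM to 0.67 nM final, 3-fold dilutions) for 18 h at 37° C. Steady-Glo luminescence read; inhibition of constitutive activity as % signal-window reduction relative to a control compound.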
row,EC50 [nM],Structure (SMILES)
1,1.2,"O=C(C1CCS(=O)(=O)CC1)N1CC[C@@]2(S(=O)(=O)c3ccc(F)cc3)c3ccc(Cc4ccc(F)cc4)cc3CC[C@@H]12 [Example 41, 4-[(3aR,9bR)-9b-(4-fluorobenzenesulfonyl)-7-[(4-fluorophenyl)methyl]-1H,2H,3H,3aH,4H,5H,9bH-benzo[e]indole-3-carbonyl]-1λ^6-thiane-1,1-dione]"
2,216,"CN1CCC(C(=O)N2CC[C@@]3(S(=O)(=O)c4ccc(F)cc4)c4ccc(OCc5ccc(F)cc5Cl)cc4CC[C@@H]23)CC1 [Example 206, 4-[(3aR,9bR)-7-[(2-chloro-4-fluorophenyl)methoxy]-9b-(4-fluorobenzenesulfonyl)-1H,2H,3H,3aH,4H,5H,9bH-benzo[e]indole-3-carbonyl]-1-methylpiperidine]"
3,14,"O=C(C1CCS(=O)(=O)CC1)N1CC[C@@]2(S(=O)(=O)c3ccc(F)cc3)c3ccc(OCc4cccc(Cl)c4)cc3CC[C@@H]12 [Example 153, 4-[(3aR,9bR)-7-[(3-chlorophenyl)methoxy]-9b-(4-fluorobenzenesulfonyl)-1H,2H,3H,3aH,4H,5H,9bH-benzo[e]indole-3-carbonyl]-1λ^6-thiane-1,1-dione]"
4,18,"CS(=O)(=O)N1CCC(C(=O)N2CC[C@@]3(S(=O)(=O)c4ccc(F)cc4)c4ccc(OCc5cc(F)ccc5Cl)cc4CC[C@@H]23)CC1 [Example 177, 4-[(3aR,9bR)-7-[(2-chloro-5-fluorophenyl)methoxy]-9b-(4-fluorobenzenesulfonyl)-1H,2H,3H,3aH,4H,5H,9bH-benzo[e]indole-3-carbonyl]-1-methanesulfonylpiperidine]"
5,22,"CC1(C(=O)N2CC[C@@]3(S(=O)(=O)c4ccc(F)cc4)c4ccc(OCc5c(F)cccc5Cl)cc4CC[C@@H]23)CCS(=O)(=O)CC1 [Example 7, ((3aR,9bR)-7-((2-chloro-6-fluorobenzyl)oxy)-9b-((4-fluorophenyl)sulfonyl)-4,5-dihydro-1H-benzo[e]indol-3(2H,3aH,9bH)-yl)(4-methyl-1,1-dioxidotetrahydro-2H-thiopyran-4-yl)methanone]"
6,5.5,"O=C(N1CC[C@@]2(S(=O)(=O)c3ccc(F)cc3)c3ccc(OCc4c(F)cccc4Cl)cc3CC[C@@H]12)C1(O)CCS(=O)(=O)CC1 [Example 16, 4-[(3aR,9bR)-7-[(2-chloro-6-fluorophenyl)methoxy]-9b-(4-fluorobenzenesulfonyl)-1H,2H,3H,3aH,4H,5H,9bH-benzo[e]indole-3-carbonyl]-4-hydroxy-1λ^6-thiane-1,1-dione]"
7,195,"O=C1CC[C@H](C(=O)N2CC[C@@]3(S(=O)(=O)c4ccccc4)c4ccc(OCc5c(F)cccc5Cl)cc4CC[C@@H]23)N1 [Example 143, (5R)-5-[(3aR,9bR)-9b-(benzenesulfonyl)-7-[(2-chloro-6-fluorophenyl)methoxy]-1H,2H,3H,3aH,4H,5H,9bH-benzo[e]indole-3-carbonyl]pyrrolidin-2-one]"
8,10,"O=C(C1CCS(=O)(=O)C1)N1CC[C@@]2(S(=O)(=O)c3ccc(F)cc3)c3ccc(OCc4c(F)cccc4C(F)(F)F)cc3CC[C@@H]12 (stereo partly drawn) [Example 187, 3-[(3aR,9bR)-7-{[2-fluoro-6-(trifluoromethyl)phenyl]methoxy}-9b-(4-fluorobenzenesulfonyl)-1H,2H,3H,3aH,4H,5H,9bH-benzo[e]indole-3-carbonyl]-1λ^6-thiolane-1,1-dione]"
9,46,"O=C(O)[C@H]1CC[C@H](C(=O)N2CC[C@@]3(S(=O)(=O)c4ccc(F)cc4)c4ccc(OCc5ccc(F)cc5Cl)cc4CC[C@@H]23)CC1 [Example 193, (1r,4r)-4-[(3aR,9bR)-7-[(2-chloro-4-fluorophenyl)methoxy]-9b-(4-fluorobenzenesulfonyl)-1H,2H,3H,3aH,4H,5H,9bH-benzo[e]indole-3-carbonyl]cyclohexane-1-carboxylic acid]"
10,14,CC1(C(=O)N2CC[C@@]3(S(=O)(=O)c4ccc(F)cc4)c4ccc(OCc5c(F)cccc5C(F)(F)F)cc4CC[C@@H]23)CCS(=O)(=O)CC1 [Example 19]
11,48,"COC(=O)[C@H]1CC[C@H](C(=O)N2CC[C@@]3(S(=O)(=O)c4ccc(F)cc4)c4ccc(OCc5c(F)cccc5C(F)(F)F)cc4CC[C@@H]23)CC1 [Example 183, methyl (1r,4r)-4-[(3aR,9bR)-7-{[2-fluoro-6-(trifluoromethyl)phenyl]methoxy}-9b-(4-fluorobenzenesulfonyl)-1H,2H,3H,3aH,4H,5H,9bH-benzo[e]indole-3-carbonyl]cyclohexane-1-carboxylate]"
12,7.1,"O=C(C1CCS(=O)(=O)CC1)N1CC[C@@]2(S(=O)(=O)c3ccccc3)c3ccc(OCc4c(F)cccc4Cl)cc3CC[C@@H]12 [Example 123, 4-[(3aR,9bR)-9b-(benzenesulfonyl)-7-[(2-chloro-6-fluorophenyl)methoxy]-1H,2H,3H,3aH,4H,5H,9bH-benzo[e]indole-3-carbonyl]-1λ^6-thiane-1,1-dione]"
13,111,"CN1NC(=O)C[C@H]1C(=O)N1CC[C@@]2(S(=O)(=O)c3ccccc3)c3ccc(OCc4c(F)cccc4Cl)cc3CC[C@@H]12 [Example 144, (5S)-5-[(3aR,9bR)-9b-(benzenesulfonyl)-7-[(2-chloro-6-fluorophenyl)methoxy]-1H,2H,3H,3aH,4H,5H,9bH-benzo[e]indole-3-carbonyl]-1-methylpyrazolidin-3-one]"
14,212,"CS(=O)(=O)N1CC[C@@]2(S(=O)(=O)c3ccccc3)c3ccc(OCc4c(Cl)cccc4Cl)cc3CC[C@@H]12 [Example 75, (3aR,9bR)-9b-(benzenesulfonyl)-7-[(2,6-dichlorophenyl)methoxy]-3-methanesulfonyl-1H,2H,3H,3aH,4H,5H,9bH-benzo[e]indole]"
15,259,"CS(=O)(=O)N1CCC(CCC(=O)N2CC[C@@]3(S(=O)(=O)c4ccccc4)c4ccc(OCc5c(Cl)cccc5Cl)cc4CC[C@@H]23)CC1 [Example 103, 1-[(3aR,9bR)-9b-(benzenesulfonyl)-7-[(2,6-dichlorophenyl)methoxy]-1H,2H,3H,3aH,4H,5H,9bH-benzo[e]indol-3-yl]-3-(1-methanesulfonylpiperidin-4-yl)propan-1-one]"
16,587,"CS(=O)(=O)NCC(=O)N1CC[C@@]2(S(=O)(=O)c3ccccc3)c3ccc(OCc4c(Cl)cccc4Cl)cc3CC[C@@H]12 [Example 58, N-{2-[(3aR,9bR)-9b-(benzenesulfonyl)-7-[(2,6-dichlorophenyl)methoxy]-1H,2H,3H,3aH,4H,5H,9bH-benzo[e]indol-3-yl]-2-oxoethyl} methanesulfonamide]"
17,4.3,"N#CCCN1C(=O)CC[C@H]1C(=O)N1CC[C@@]2(S(=O)(=O)c3ccc(F)cc3)c3ccc(OCc4c(F)cccc4C(F)(F)F)cc3CC[C@@H]12 [Example 155, 3-[(2S)-2-[(3aR,9bR)-7-{[2-fluoro-6-(trifluoromethyl)phenyl]methoxy}-9b-(4-fluorobenzenesulfonyl)-1H,2H,3H,3aH,4H,5H,9bH-benzo[e]indole-3-carbonyl]-5-oxopyrrolidin-1-yl]propanenitrile]"
18,119,"NS(=O)(=O)CC(=O)N1CC[C@@]2(S(=O)(=O)c3ccccc3)c3ccc(OCc4c(F)cccc4Cl)cc3CC[C@@H]12 [Example 148, 2-[(3aR,9bR)-9b-(benzenesulfonyl)-7-[(2-chloro-6-fluorophenyl)methoxy]-1H,2H,3H,3aH,4H,5H,9bH-benzo[e]indol-3-yl]-2-oxoethane-1-sulfonamide]"
19,102,"O=C(N1CCOCC1)N1CC[C@@]2(S(=O)(=O)c3ccccc3)c3ccc(OCc4c(Cl)cccc4Cl)cc3CC[C@@H]12 [Example 80, 4-[(3aR,9bR)-9b-(benzenesulfonyl)-7-[(2,6-dichlorophenyl)methoxy]-1H,2H,3H,3aH,4H,5H,9bH-benzo[e]indole-3-carbonyl]morpholine]"
20,62,"O=C(NC1CCS(=O)(=O)C1)N1CC[C@@]2(S(=O)(=O)c3ccccc3)c3ccc(OCc4c(Cl)cccc4Cl)cc3CC[C@@H]12 (stereo partly drawn) [Example 101, (3aR,9bR)-9b-(benzenesulfonyl)-7-[(2,6-dichlorophenyl)methoxy]-N-(1,1-dioxo-1λ^6-thiolan-3-yl)-1H,2H,3H,3aH,4H,5H,9bH-benzo[e]indole-3-carboxamide]"
21,110,"NS(=O)(=O)CC(=O)N1CC[C@@]2(S(=O)(=O)c3ccc(F)cc3)c3ccc(OCc4cc(F)c(F)cc4Cl)cc3CC[C@@H]12 [Example 211, 2-[(3aR,9bR)-7-[(2-chloro-4,5-difluorophenyl)methoxy]-9b-(4-fluorobenzenesulfonyl)-1H,2H,3H,3aH,4H,5H,9bH-benzo[e]indol-3-yl]-2-oxoethane-1-sulfonamide]"
22,131,"CC(=O)N[C@H]1CC[C@H](C(=O)N2CC[C@@]3(S(=O)(=O)c4ccc(F)cc4)c4ccc(OCc5c(F)cccc5C(F)(F)F)cc4CC[C@@H]23)CC1 [Example 108, N-[(1r,4r)-4-[(3aR,9bR)-7-{[2-fluoro-6-(trifluoromethyl)phenyl]methoxy} -9b-(4-fluorobenzenesulfonyl)-1H,2H,3H,3aH,4H,5H,9bH-benzo[e]indole-3-carbonyl]cyclohexyl]acetamide]"
23,157,"CN1CCC(C(=O)N2CC[C@@]3(S(=O)(=O)c4ccc(F)cc4)c4ccc(OCc5c(F)cc(F)cc5Cl)cc4CC[C@@H]23)CC1 [Example 215, 4-[(3aR,9bR)-7-[(2-chloro-4,6-difluorophenyl)methoxy]-9b-(4-fluorobenzenesulfonyl)-1H,2H,3H,3aH,4H,5H,9bH-benzo[e]indole-3-carbonyl]-1-methylpiperidine]"
